According to US20240109900A1, “AZABICYCLIC SHP2 INHIBITORS” (IRBM S.P.A., priority 2021, published 2024):
pIC50: −log10 of the molar value.

Assays:
[1] = target: SHP-2 enzyme (Met1-Leu525) (Homo sapiens (Human), UniProt Q06124); assay: SHP2 inhibition enzymatic assay; assay type: biochemical; details: 0.5 nM SHP-2 activated by 500 nM IRS1 peptide, 75 μM DiFMUP substrate; read-out: SHP2wt-IC50
Protocol: The assay was performed as described in YP Chen et al, Nature (535)2016. Assay volume of 20 μL/well was assembled in 384 well black polystyrene low-binding microplates (Greiner), using the following buffer: 60 mM HEPES pH 7.2, 75 mM NaCl, 75 mM KCl, 1 mM EDTA pH 8, 0.05% tween-20, 5 mM DTT. The SHP-2 enzyme (synthetized by Origene, Met1-Leu525, cat #TP750155) was used at a final concentration of 0.5 nM. The enzyme was activated by 500 nM IRS1 peptide (sequence: H2N-LN(pY)IDLDLV(dPEG8)LST(pY)ASINFQK-amide SEQ ID No. 1) and incubated with 75 μM DiFMUP (Sigma) as substrate.
Briefly, DMSO serially diluted testing compounds were transferred to the bottom of the assay plate. SHP2 was then added together with the IRS1 peptide. 30 min post incubation, the DiFMUP substrate was added to the reaction and incubated 30 min at room temperature. Finally 5 μL of 160 μM bpV (Potassium bisperoxo[1,10-phenanthroline]oxovanadate [V], Sigma) were added to stop and quench the reaction. The fluorescence was detected by a microplate reader (Envision, PerkinElmer) according to the DiFMUP excitation and emission wavelength. The lower the fluorescence the higher the SHP2 inhibition. […] The percentage inhibition is fitted against the compound dilutions with a four-parameter logistic regression. The inflection point (i.e. the concentration at which half-maximal inhibition is achieved) is the IC50.

[2] = test system: ERK phosphorylation in KYSE-520 cells; assay: Phospho-ERK cellular assay; assay type: cell-based; details: Homo sapiens, KYSE-520, 2 h, KYSE-520 cells, 2 h at 37° C., phospho-ERK1/2 (Thr202/Tyr204) TR-FRET; read-out: PERK IC50
Protocol: ERK phosphorylation was detected using the “Advanced phospho-ERK1/2 (Thr202/Tyr204)” TR-FRET kit (Cisbio, Cat #64AERPEG/H), following the manufacturer reagents and instructions.
Briefly, 20.000/well KYSE-520 cells (DSMZ ACC 371) were plated in 6 μL RPMI-1640 (Invitrogen) growth medium, into 384 white low-volume high base TC microplates (Greiner). After an overnight incubation, cells were treated with DMSO serial diluted compounds and incubated for 2 h at 37° C. After incubation, 2 μL/well of 4×Lysis Buffer (Cisbio 64KL1FDF), were added and incubated with cells for 30 min on gentle shaking. Finally, lysates were added with 2 μL/well of Eu cryptate (donor) and D2 (acceptor) conjugated antibodies (as provided by the Cisbio kit #64AERPEG/H) diluted 1:100 in Detection Buffer (as provided by the Cisbio kit #64AERPEG/H). Plates were then sealed and incubated at room temperature in the dark. After an overnight incubation, the TR-FRET signal was detected on a suitable reader (Envision, PerkinElmer). The lower the TR-FRET signal the higher the higher the SHP2 inhibition in cells.
The activity of each compound dilution was calculated as percentage between vehicle DMSO treated cells and no cells, 0% inhibition and 100% inhibition respectively. The percentage activity is fitted against the compound dilutions with a four-parameter logistic regression. The inflection point (i.e. the concentration at which half-maximal inhibition is achieved) is the IC50.

Chain of SHP-2 enzyme (Met1-Leu525) (Q06124 1-525): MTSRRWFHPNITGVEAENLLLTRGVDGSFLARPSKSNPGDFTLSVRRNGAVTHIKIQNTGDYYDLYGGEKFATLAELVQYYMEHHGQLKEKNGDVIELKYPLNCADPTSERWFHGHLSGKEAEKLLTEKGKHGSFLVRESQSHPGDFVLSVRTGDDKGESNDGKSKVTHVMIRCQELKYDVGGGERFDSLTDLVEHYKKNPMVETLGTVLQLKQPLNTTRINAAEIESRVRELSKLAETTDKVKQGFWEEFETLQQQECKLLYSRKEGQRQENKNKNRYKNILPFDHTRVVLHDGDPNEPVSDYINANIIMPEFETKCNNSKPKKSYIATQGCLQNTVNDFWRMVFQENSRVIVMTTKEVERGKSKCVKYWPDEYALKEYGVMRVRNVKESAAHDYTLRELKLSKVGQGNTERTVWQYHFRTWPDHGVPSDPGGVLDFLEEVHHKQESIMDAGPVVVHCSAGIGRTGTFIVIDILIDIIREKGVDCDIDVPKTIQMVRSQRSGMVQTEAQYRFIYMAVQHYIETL

Compound	pIC50 [1]	pIC50 [2]
NCC1(c2ccccc2F)C2CCN(c3cnc4c(-c5cccc6ncccc56)n[nH]c4n3)CC21 (stereo not shown) [Example 5, (7-(2-fluorophenyl)-3-(3-(quinolin-5-yl)-1H-pyrazolo[3,4-b]pyrazin-6-yl)-3-azabicyclo[4.1.0]heptan-7-yl)methanamine]	> 6.30	> 6.00
NCC1(c2cccc(F)c2)C2CCN(c3cnc4c(-c5cccc(Cl)c5Cl)n[nH]c4n3)CC21 (stereo not shown) [Example 7, (3-(3-(2,3-dichlorophenyl)-1H-pyrazolo[3,4-b]pyrazin-6-yl)-7-(3-fluorophenyl)-3-azabicyclo[4.1.0]heptan-7-yl)methanamine]	> 6.30	> 6.00
NCC1(c2ccc(F)cc2)C2CCN(c3cnc4c(-c5cccc(Cl)c5Cl)n[nH]c4n3)CC21 (stereo not shown) [Example 10, (3-(3-(2,3-dichlorophenyl)-1H-pyrazolo[3,4-b]pyrazin-6-yl)-7-(4-fluorophenyl)-3-azabicyclo[4.1.0]heptan-7-yl)methanamine]	> 6.30	> 6.00
NCC1(c2ccc(F)cc2)C2CCN(c3cnc4c(-c5ccc6nccnc6c5)n[nH]c4n3)CC21 (stereo not shown) [Example 11, (7-(4-fluorophenyl)-3-(3-(quinoxalin-6-yl)-1H-pyrazolo[3,4-b]pyrazin-6-yl)-3-azabicyclo[4.1.0]heptan-7-yl)methanamine]	> 6.30	< 5.30
NCC1(c2ccc(F)cc2)C2CCN(c3cnc4c(-c5cccc6cccnc56)n[nH]c4n3)CC21 (stereo not shown) [Example 12, (7-(4-fluorophenyl)-3-(3-(quinolin-8-yl)-1H-pyrazolo[3,4-b]pyrazin-6-yl)-3-azabicyclo[4.1.0]heptan-7-yl)methanamine]	5.52 to 6.30	< 5.30
Cn1cc(C2(CN)C3CCN(c4cnc5c(-c6cccc(Cl)c6Cl)n[nH]c5n4)CC32)nn1 (stereo not shown) [Example 13, (3-(3-(2,3-dichlorophenyl)-1H-pyrazolo[3,4-b]pyrazin-6-yl)-7-(1-methyl-1H-1,2,3-triazol-4-yl)-3-azabicyclo[4.1.0]heptan-7-yl)methanamine]	> 6.30	> 6.00
Cc1conc1C1(CN)C2CCN(c3cnc4c(-c5cccc(Cl)c5Cl)n[nH]c4n3)CC21 (stereo not shown) [Example 14, (3-(3-(2,3-dichlorophenyl)-1H-pyrazolo[3,4-b]pyrazin-6-yl)-7-(4-methylisoxazol-3-yl)-3-azabicyclo[4.1.0]heptan-7-yl)methanamine]	> 6.30	> 6.00
Cc1conc1C1(CN)C2CCN(c3cnc4c(-c5ccc6nn(C)cc6c5Cl)n[nH]c4n3)CC21 (stereo not shown) [Example 15, (3-(3-(4-chloro-2-methyl-2H-indazol-5-yl)-1H-pyrazolo[3,4-b]pyrazin-6-yl)-7-(4-methylisoxazol-3-yl)-3-azabicyclo[4.1.0]heptan-7-yl)methanamine]	> 6.30	> 6.00
CNc1nccc(-c2n[nH]c3nc(N4CCC5C(C4)C5(CN)c4ccccc4F)cnc23)c1Cl (stereo not shown) [Example 16, 4-(6-(7-(aminomethyl)-7-(2-fluorophenyl)-3-azabicyclo[4.1.0]heptan-3-yl)-1H-pyrazolo[3,4-b]pyrazin-3-yl)-3-chloro-N-methylpyridin-2-amine]	> 6.30	> 6.00

More lines, now with the values ahead:

pIC50 [1]	pIC50 [2]	Compound
> 6.30	> 6.00	Cc1cc(C2(CN)C3CCN(c4cnc5c(-c6cccc(Cl)c6Cl)n[nH]c5n4)CC32)on1 (stereo not shown) [Example 6, (3-(3-(2,3-dichlorophenyl)-1H-pyrazolo[3,4-b]pyrazin-6-yl)-7-(3-methylisoxazol-5-yl)-3-azabicyclo[4.1.0]heptan-7-yl)methanamine]
> 6.30	> 6.00	Cc1cc(C2(CN)C3CCN(c4cnc5c(-c6cccc(Cl)c6Cl)n[nH]c5n4)CC32)no1 (stereo not shown) [Example 8, (3-(3-(2,3-dichlorophenyl)-1H-pyrazolo[3,4-b]pyrazin-6-yl)-7-(5-methylisoxazol-3-yl)-3-azabicyclo[4.1.0]heptan-7-yl)methanamine]
> 6.30	> 6.00	Cc1cc(C2(CN)C3CCN(c4cnc5c(-c6cccc7ncccc67)n[nH]c5n4)CC32)no1 (stereo not shown) [Example 9, (7-(5-methylisoxazol-3-yl)-3-(3-(quinolin-5-yl)-1H-pyrazolo[3,4-b]pyrazin-6-yl)-3-azabicyclo[4.1.0]heptan-7-yl)methanamine]
> 6.30	> 6.00	CNc1nccc(-c2n[nH]c3nc(N4CCC5C(C4)C5(CN)c4cc(C)on4)cnc23)c1Cl (stereo not shown) [Example 17, 4-(6-(7-(aminomethyl)-7-(5-methylisoxazol-3-yl)-3-azabicyclo[4.1.0]heptan-3-yl)-1H-pyrazolo[3,4-b]pyrazin-3-yl)-3-chloro-N-methylpyridin-2-amine]
> 6.30	> 6.00	Cc1cc(C2(CN)C3CCN(c4cnc5c(-c6ccnc7ccsc67)n[nH]c5n4)CC32)no1 (stereo not shown) [Example 18, (7-(5-methylisoxazol-3-yl)-3-(3-(thieno[3,2-b]pyridin-7-yl)-1H-pyrazolo[3,4-b]pyrazin-6-yl)-3-azabicyclo[4.1.0]heptan-7-yl)methanamine]
> 6.30	> 6.00	Cc1cc(C2(CN)C3CCN(c4cnc5c(-c6cccc7c6CNC7=O)n[nH]c5n4)CC32)no1 (stereo not shown) [Example 19, 4-(6-(7-(aminomethyl)-7-(5-methylisoxazol-3-yl)-3-azabicyclo[4.1.0]heptan-3-yl)-1H-pyrazolo[3,4-b]pyrazin-3-yl)isoindolin-1-one]
> 6.30	> 6.00	Cc1cc(C2(CN)C3CCN(c4cnc5c(-c6ccc7scnc7c6)n[nH]c5n4)CC32)no1 (stereo not shown) [Example 20, (3-(3-(benzo[d]thiazol-5-yl)-1H-pyrazolo[3,4-b]pyrazin-6-yl)-7-(5-methylisoxazol-3-yl)-3-azabicyclo[4.1.0]heptan-7-yl)methanamine]
> 6.30	> 6.00	Cc1cc(C2(CN)C3CCN(c4cnc5c(-c6ccc(C)c7ncccc67)n[nH]c5n4)CC32)no1 (stereo not shown) [Example 21, (7-(5-methylisoxazol-3-yl)-3-(3-(8-methylquinolin-5-yl)-1H-pyrazolo[3,4-b]pyrazin-6-yl)-3-azabicyclo[4.1.0]heptan-7-yl)methanamine]
> 6.30	> 6.00	COc1ccc(-c2n[nH]c3nc(N4CCC5C(C4)C5(CN)c4cc(C)on4)cnc23)c2cccnc12 (stereo not shown) [Example 22, (3-(3-(8-methoxyquinolin-5-yl)-1H-pyrazolo[3,4-b]pyrazin-6-yl)-7-(5-methylisoxazol-3-yl)-3-azabicyclo[4.1.0]heptan-7-yl)methanamine]
> 6.30	> 6.00	Cc1cc(C2(CN)C3CCN(c4cnc5c(-c6cccc7cnccc67)n[nH]c5n4)CC32)no1 (stereo not shown) [Example 23, (3-(3-(isoquinolin-5-yl)-1H-pyrazolo[3,4-b]pyrazin-6-yl)-7-(5-methylisoxazol-3-yl)-3-azabicyclo[4.1.0]heptan-7-yl)methanamine]
> 6.30	> 6.00	Cc1cc(C2(CN)C3CCN(c4cnc5c(-c6ccc7nn(C)cc7c6Cl)n[nH]c5n4)CC32)no1 (stereo not shown) [Example 24, (3-(3-(4-chloro-2-methyl-2H-indazol-5-yl)-1H-pyrazolo[3,4-b]pyrazin-6-yl)-7-(5-methylisoxazol-3-yl)-3-azabicyclo[4.1.0]heptan-7-yl)methanamine]
